For assay [1], the target named is Calcium/calmodulin-dependent protein kinase type II subunit beta (Homo sapiens) (UniProt Q13554). Nature of the assay: Inhibition of human CAMK2b at 500 nM by HotSpot assay relative to control.
For assay [2], the target named is T1, Myotonin-protein kinase (Homo sapiens) (UniProt Q09013).
T1 sequence (whole entry): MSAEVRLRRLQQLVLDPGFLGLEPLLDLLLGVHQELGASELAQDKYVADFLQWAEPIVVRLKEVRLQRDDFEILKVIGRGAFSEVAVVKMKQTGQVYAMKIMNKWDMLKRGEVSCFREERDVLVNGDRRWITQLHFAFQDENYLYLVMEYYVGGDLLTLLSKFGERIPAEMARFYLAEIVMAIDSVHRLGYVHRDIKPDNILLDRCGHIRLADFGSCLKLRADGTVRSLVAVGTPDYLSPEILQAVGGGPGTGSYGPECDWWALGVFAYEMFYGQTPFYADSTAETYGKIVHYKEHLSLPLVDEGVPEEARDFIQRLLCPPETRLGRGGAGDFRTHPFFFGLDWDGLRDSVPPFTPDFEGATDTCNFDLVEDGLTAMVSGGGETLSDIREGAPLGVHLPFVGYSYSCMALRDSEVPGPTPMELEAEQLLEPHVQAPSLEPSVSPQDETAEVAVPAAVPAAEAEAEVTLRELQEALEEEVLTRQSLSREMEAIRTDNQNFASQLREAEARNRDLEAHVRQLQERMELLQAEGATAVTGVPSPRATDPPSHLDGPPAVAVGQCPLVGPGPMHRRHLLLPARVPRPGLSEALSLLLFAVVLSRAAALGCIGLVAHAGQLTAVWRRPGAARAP
Nature of the assay: Inhibition of human DMPK at 500 nM by HotSpot assay relative to control.

Assay [3] addresses T2, Serine/threonine-protein kinase haspin (Homo sapiens) (UniProt Q8TF76).
T2 sequence (whole entry): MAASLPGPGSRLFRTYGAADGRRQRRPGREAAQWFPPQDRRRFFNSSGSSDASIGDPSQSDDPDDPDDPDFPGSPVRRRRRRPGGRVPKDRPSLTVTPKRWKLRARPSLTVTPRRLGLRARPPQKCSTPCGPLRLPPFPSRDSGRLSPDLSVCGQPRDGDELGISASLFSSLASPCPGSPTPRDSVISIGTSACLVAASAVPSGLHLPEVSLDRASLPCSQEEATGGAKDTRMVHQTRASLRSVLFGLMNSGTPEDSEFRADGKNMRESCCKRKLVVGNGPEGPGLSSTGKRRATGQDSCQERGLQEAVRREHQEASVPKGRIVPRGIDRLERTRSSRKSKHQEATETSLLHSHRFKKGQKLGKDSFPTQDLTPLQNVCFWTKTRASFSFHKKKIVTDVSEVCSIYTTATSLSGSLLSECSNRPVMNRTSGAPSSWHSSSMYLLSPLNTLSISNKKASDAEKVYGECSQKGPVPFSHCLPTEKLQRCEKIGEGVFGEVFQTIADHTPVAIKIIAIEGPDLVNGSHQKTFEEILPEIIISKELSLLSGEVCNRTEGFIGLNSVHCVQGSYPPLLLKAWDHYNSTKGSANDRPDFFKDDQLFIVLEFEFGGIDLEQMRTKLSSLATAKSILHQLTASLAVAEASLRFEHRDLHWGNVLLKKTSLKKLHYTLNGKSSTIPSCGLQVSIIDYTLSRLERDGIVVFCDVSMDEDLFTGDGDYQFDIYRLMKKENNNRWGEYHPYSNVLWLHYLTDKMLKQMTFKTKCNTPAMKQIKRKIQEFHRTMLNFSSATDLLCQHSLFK
The assay can be described thus: Inhibition of human Haspin at 500 nM by HotSpot assay relative to control.

The target in assay [4] is Leucine-rich repeat serine/threonine-protein kinase 2 (Homo sapiens) (UniProt Q5S007). Nature of the assay: Inhibition of human LRRK2 at 500 nM by HotSpot assay relative to control.
Leucine-rich repeat serine/threonine-protein kinase 2 (Homo sapiens), sequence (Q5S007 whole entry): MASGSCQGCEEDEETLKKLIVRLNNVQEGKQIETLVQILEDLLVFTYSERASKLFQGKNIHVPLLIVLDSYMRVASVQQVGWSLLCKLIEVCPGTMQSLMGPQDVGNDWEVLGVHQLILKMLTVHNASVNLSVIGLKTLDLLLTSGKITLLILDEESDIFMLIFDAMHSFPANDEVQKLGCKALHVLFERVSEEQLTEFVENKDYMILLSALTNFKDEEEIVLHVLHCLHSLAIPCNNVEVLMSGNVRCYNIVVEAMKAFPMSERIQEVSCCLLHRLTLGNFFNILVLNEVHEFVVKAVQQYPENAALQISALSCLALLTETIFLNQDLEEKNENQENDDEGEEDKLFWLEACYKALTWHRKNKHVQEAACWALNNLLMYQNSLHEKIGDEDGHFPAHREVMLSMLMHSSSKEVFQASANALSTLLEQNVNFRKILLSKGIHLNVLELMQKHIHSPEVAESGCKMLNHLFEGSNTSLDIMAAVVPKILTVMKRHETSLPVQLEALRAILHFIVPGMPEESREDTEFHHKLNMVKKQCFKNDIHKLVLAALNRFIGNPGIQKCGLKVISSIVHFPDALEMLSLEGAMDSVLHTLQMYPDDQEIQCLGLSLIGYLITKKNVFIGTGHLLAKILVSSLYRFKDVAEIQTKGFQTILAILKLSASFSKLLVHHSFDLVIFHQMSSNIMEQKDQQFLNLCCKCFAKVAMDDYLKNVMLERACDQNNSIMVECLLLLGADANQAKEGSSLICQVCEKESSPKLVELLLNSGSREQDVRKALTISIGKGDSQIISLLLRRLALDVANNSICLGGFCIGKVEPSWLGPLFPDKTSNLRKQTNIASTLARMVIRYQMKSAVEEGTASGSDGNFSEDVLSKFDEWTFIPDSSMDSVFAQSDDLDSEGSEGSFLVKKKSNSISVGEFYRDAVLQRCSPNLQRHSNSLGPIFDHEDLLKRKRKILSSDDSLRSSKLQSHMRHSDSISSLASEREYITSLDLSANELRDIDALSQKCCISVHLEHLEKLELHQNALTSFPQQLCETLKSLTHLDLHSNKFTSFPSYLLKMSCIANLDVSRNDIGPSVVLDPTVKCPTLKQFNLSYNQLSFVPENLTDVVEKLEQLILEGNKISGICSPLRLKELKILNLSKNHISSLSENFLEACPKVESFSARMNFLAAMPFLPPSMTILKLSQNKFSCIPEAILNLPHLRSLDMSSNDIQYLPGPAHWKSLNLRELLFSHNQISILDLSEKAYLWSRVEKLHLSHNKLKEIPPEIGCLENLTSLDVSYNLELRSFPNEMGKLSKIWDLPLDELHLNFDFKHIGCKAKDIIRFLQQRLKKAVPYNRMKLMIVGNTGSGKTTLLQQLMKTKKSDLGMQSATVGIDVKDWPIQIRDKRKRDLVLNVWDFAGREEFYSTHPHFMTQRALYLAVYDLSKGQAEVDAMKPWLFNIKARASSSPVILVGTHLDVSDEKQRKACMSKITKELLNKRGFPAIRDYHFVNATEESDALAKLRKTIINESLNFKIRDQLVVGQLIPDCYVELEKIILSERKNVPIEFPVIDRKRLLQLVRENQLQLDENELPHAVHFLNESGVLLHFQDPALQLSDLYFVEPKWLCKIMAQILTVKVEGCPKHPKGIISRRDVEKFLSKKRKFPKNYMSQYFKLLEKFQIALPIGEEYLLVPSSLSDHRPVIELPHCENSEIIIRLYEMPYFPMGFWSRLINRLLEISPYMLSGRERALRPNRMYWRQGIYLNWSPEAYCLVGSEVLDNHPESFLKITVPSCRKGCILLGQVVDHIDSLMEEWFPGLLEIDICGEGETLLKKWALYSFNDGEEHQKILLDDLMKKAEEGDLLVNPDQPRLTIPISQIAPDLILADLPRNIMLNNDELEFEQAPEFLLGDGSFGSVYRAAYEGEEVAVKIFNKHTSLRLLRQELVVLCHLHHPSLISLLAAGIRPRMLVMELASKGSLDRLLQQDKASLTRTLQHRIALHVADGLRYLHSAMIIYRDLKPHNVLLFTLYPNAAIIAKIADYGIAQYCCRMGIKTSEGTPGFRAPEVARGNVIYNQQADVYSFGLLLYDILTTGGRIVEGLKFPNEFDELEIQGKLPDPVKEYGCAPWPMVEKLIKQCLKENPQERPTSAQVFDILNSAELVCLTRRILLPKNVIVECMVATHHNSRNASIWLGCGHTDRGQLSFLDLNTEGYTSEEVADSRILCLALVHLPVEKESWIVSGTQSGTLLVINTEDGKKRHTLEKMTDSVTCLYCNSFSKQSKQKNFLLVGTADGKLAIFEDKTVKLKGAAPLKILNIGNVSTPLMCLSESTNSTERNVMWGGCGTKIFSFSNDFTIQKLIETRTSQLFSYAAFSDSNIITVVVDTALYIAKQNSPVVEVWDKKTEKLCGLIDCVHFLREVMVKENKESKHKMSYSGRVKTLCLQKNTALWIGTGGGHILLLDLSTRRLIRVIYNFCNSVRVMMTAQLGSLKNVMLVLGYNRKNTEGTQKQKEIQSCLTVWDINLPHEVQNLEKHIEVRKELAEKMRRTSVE
In assay [5] the target is Serine/threonine-protein kinase 26 (Homo sapiens) (UniProt Q9P289). The assay can be described thus: Inhibition of human MST4 at 500 nM by HotSpot assay relative to control.
Serine/threonine-protein kinase 26 (Homo sapiens), sequence (Q9P289 2-416 limits assumed): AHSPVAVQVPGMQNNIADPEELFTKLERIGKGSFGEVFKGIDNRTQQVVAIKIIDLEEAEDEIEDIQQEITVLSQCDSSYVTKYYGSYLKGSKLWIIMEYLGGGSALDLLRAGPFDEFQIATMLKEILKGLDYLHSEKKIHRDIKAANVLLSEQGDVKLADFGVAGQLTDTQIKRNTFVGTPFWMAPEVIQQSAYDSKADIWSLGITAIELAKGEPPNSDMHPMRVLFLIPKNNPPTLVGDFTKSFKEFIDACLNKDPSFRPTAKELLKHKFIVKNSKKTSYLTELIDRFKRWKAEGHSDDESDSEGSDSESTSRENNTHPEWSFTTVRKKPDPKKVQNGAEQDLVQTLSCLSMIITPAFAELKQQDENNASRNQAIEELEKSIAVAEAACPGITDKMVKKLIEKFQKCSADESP
In assay [6] the target is T3, Serine/threonine-protein kinase Nek2 (Homo sapiens) (UniProt P51955).
T3 sequence (whole entry): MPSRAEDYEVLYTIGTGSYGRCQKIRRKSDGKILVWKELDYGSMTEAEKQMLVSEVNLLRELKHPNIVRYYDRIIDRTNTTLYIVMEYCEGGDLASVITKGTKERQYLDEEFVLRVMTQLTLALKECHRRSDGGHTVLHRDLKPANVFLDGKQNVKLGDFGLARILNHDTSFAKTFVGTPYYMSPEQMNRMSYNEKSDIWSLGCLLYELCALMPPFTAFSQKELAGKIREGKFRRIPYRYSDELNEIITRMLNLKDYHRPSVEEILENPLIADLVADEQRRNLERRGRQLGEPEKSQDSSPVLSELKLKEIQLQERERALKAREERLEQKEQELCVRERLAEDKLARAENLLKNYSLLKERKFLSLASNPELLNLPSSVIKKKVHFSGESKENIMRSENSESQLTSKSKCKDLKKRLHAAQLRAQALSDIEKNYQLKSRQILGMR
The assay can be described thus: Inhibition of human NEK2 at 500 nM by HotSpot assay relative to control.

Assay [7] concerns the target Platelet-derived growth factor receptor alpha (Homo sapiens) (UniProt P16234). The assay can be described thus: Inhibition of human PDGFRa at 500 nM by HotSpot assay relative to control.
Assay [8] concerns the target SRSF protein kinase 1 (Homo sapiens) (UniProt Q96SB4). Nature of the assay: Inhibition of human SRPK1 at 500 nM by HotSpot assay relative to control.
Assay [9] has as its target T4, Tyrosine-protein kinase Tec (Homo sapiens) (UniProt P42680).
T4 sequence (whole entry): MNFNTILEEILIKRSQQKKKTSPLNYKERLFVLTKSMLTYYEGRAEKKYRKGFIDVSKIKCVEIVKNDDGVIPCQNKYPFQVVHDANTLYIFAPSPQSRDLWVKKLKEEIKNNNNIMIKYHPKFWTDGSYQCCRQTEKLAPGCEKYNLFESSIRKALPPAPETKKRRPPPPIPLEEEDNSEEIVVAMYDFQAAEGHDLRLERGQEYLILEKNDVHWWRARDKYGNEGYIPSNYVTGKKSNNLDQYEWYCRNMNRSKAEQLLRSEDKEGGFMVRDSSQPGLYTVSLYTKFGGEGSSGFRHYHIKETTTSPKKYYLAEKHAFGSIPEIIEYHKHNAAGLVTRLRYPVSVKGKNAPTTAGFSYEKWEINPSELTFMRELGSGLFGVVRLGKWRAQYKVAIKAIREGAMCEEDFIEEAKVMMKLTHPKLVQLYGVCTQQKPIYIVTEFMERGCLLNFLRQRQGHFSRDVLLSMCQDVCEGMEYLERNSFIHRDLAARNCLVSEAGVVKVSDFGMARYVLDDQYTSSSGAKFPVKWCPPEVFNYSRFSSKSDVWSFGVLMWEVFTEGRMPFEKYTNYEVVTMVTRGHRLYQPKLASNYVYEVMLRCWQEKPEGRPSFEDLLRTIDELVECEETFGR
Nature of the assay: Inhibition of human TEC at 500 nM by HotSpot assay relative to control.

These results are taken from ChEMBL document CHEMBL5653615 (J Biol Chem, 2013).

The structures appear in SMILES notation.

What is called inhibition is the relative decrease from the control value, in per cent.

Calcium/calmodulin-dependent protein kinase type II subunit beta (Homo sapiens), sequence (Q13554 whole entry): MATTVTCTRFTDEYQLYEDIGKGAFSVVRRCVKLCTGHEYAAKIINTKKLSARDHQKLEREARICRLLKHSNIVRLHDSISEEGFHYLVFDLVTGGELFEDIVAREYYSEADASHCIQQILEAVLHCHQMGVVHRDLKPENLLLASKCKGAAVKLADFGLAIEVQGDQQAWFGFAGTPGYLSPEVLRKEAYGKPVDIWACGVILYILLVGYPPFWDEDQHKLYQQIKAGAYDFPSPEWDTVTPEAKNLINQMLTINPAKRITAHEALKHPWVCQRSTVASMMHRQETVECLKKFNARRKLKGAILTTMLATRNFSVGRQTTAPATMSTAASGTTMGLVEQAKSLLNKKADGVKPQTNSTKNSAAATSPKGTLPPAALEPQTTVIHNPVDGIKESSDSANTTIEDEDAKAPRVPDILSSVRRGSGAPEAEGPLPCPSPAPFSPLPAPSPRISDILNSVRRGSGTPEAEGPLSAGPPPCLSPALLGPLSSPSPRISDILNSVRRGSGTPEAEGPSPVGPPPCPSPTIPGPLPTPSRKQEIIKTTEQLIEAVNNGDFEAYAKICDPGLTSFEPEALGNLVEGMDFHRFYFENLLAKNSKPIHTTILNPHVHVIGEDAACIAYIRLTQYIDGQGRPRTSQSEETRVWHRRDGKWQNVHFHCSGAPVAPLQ
Platelet-derived growth factor receptor alpha (Homo sapiens), sequence (P16234 whole entry): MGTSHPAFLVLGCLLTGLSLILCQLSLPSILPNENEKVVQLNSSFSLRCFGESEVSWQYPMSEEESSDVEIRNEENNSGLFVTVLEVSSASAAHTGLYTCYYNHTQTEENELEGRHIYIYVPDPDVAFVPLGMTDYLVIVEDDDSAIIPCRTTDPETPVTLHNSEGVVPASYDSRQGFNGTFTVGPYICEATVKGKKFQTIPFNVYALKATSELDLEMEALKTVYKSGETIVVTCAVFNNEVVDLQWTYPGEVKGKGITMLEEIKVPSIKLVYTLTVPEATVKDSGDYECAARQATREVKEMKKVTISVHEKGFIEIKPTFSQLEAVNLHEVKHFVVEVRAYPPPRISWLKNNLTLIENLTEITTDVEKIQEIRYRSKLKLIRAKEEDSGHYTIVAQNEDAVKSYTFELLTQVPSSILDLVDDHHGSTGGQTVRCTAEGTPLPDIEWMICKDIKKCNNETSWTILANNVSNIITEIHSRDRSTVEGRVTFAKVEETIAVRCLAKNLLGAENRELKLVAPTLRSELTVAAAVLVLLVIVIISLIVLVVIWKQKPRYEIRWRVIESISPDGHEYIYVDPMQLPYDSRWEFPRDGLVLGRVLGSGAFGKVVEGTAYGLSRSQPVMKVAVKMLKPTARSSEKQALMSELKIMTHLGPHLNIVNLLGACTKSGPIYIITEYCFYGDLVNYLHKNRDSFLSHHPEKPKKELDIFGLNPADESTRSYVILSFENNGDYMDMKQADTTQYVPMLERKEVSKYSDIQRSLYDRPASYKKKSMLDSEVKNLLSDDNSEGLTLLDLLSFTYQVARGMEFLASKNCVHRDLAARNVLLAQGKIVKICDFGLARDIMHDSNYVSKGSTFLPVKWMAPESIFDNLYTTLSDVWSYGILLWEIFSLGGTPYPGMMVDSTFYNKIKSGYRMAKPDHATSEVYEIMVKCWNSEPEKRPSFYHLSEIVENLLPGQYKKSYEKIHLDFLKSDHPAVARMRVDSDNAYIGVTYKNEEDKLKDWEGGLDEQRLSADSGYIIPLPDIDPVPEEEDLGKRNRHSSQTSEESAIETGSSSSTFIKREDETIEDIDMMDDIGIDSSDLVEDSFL

Regarding `Oc1n[nH]c2nnc(-c3c(-c4ccccc4)nn4ccccc34)cc12`, the inhibition in [1] was -1.77%; in assay [2] it was -3.39%; in [3], 11.6%; in assay [4], -1.49%; in assay [5] it was 3.66%; in assay [6] it was -3.97%. Besides, the inhibition is -1.33% in [7], 10.4% in assay [8] and -3% in assay [9].

Take `Nc1n[nH]c2nnc(-c3c(-c4ccccc4)nn4ccccc34)cc12`: the inhibition in assay [1] is -2.4%; in [2] it was -2.61%; in [3], 2.91%; in [4], 8.17%; in assay [5] it was 24.1%; in [6], 4.69%. Moreover, the inhibition in [7] is 0.32%; in assay [8] it was 16.3%; in assay [9], 3.88%.
